Experimental data taken from patent US20250170090A1, “METHOD FOR PREVENTING OR TREATING DISEASE OR DISORDER ASSOCIATED WITH ANTINEOPLASTIC AGENT” (ONQUALITY PHARMACEUTICALS CHINA LTD., priority 2022, published 2025).
Like-named read-outs stand apart in the source and are kept apart here.

Tests used:
HUVEC cells = experiment: CCK-8 cell viability: alleviation of proliferative toxicity of anti-tumor agents on HUVEC cells (Tables 7-1, 7-2); format: cell-based; details: Homo sapiens, 24 h, NO-NSAID 100 μM, percentage increase in viable cells vs anti-tumor agent alone, read-out: Response rate % (average)
In short: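 Viability was measured by CCK-8 after 24-48 h of culture. Cells received anti-tumor agent in DMSO with or without co-added NO-NSAID (dissolved in ethanol or sterile water), and results were corrected against the matching NO-NSAID solvent control.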

[1] = test system: hand-foot syndrome induced by anti-tumor agents; experiment: Prevention of hand-foot syndrome induced by anti-tumor agents in rats, NO-NSAID ointment on hind paws (Table 2-2); format: in vivo, SD rats; details: Rattus norvegicus, topical, read-out: Control rate; for responders at 1 %: ointment 1% wt
In short: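 Female SD rats (8 weeks, ~200 g; 10/group) received anti-tumour agents by daily oral gavage in Cremophor EL:ethanol 1:1 diluted ~3× with PBS. NO-NSAID or blank ointment was applied to hind paws once daily, 4 h restrained, then wiped off. Control rate = blank-group minus treated-group hand-foot syndrome incidence.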

`CC(=O)Oc1ccccc1C(=O)OCc1no[n+]([O-])c1C(N)=O` [Compound A6] showed an activation at 100 µM (HUVEC cells; Afatinib (10 μM)) of 45%, an activation at 100 µM (HUVEC cells; Anlotinib (5 μM)) of 50% and an activation at 100 µM (HUVEC cells; Apatinib (10 μM)) of 41%. The activation at 100 µM (HUVEC cells; Axitinib (10 μM)) was 22%, the activation at 100 µM (HUVEC cells; Cabozantinib (5 μM)) was 0% and the activation at 100 µM (HUVEC cells; Dabrafenib (10 μM)) was 21%. It also gave an activation at 100 µM (HUVEC cells; Dacomitinib (5 μM)) of 75%, an activation at 100 µM (HUVEC cells; Encorafenib (5 μM)) of 51% and an activation at 100 µM (HUVEC cells; Erdafitinib (10 μM)) of 56%. The activation at 100 µM (HUVEC cells; Everolimus (5 μM)) was 52%, the activation at 100 µM (HUVEC cells; Famitinib (5 μM)) was 66% and the activation at 100 µM (HUVEC cells; Fruquintinib (10 μM)) was 53%. The activation at 100 µM (HUVEC cells; Gefitinib (10 μM)) was 77%, the activation at 100 µM (HUVEC cells; Infigratinib (15 μM)) was 32% and the activation at 100 µM (HUVEC cells; Lapatinib (5 μM)) was 41%. The activation at 100 µM (HUVEC cells; Lenvatinib (10 μM)) was 23%, the activation at 100 µM (HUVEC cells; Olmutinib (10 μM)) was 28% and the activation at 100 µM (HUVEC cells; Regorafenib (5 μM)) was 66%. For the same compound, the activation at 100 µM (HUVEC cells; Selumetinib (5 μM)) was 64%, the activation at 100 µM (HUVEC cells; Sorafenib (5 μM)) was 24% and the activation at 100 µM (HUVEC cells; Sunitinib (5 μM)) was 58%. For the same compound, the activation at 100 µM (HUVEC cells; Vemurafenib (5 μM)) was 42%, the responders at 1 % ([1]; 120 h, Sorafenib 80 mg/kg once a day, Days 5) was 66.7% and the responders at 1 % ([1]; 360 h, Encorafenib 80 mg/kg once a day, Days 15) was 40%. The responders at 1 % ([1]; 432 h, Cabozantinib 50 mg/kg once a day, Days 18) was 40% and the responders at 3 % ([1]; 432 h, Cabozantinib 50 mg/kg once a day, ointment 3% wt, Days 18) was 42.9%.
